Source: patent US20080021026A1, “BENZOTHIOPHENE INHIBITORS OF RHO KINASE” (priority 2006, published 2008)

How the values were obtained:
[1] = biological target: T1, recombinant N-terminal GST-tagged human Rho kinase 1 (ROCK1, amino acids 1-535) (Homo sapiens, UniProt Q13464); assay: In vitro Rho kinase assay (luciferase-based ATP consumption), ROCK1; format: biochemical; conditions: recombinant GST-tagged human ROCK1, luciferase-based ATP consumption; read-out: ROCK1 IC50
T1 construct: ROCK1, amino acids 1-535; purchased Invitrogen Inc. PV-3691
Method: In Vitro Rho Kinase Assay
Rho kinase biochemical assays described below depend on firefly luciferase-based, indirect measurement of total ATP consumption by the kinase following incubation with substrate and ATP. 25 μl of Rho kinase assay buffer (20 mM Tris-HCL [pH 7.5], 1 mM MgCl2, 0.4 mM CaCl2, 0.15 mM EGTA, 0.1 mg/ml bovine serum albumin) containing 0.82 μg/ml of recombinant N-terminal GST-tagged human Rho kinase 1 (ROCK1, amino acids 1-535, Invitrogen Inc., cat. #PV-3691) or recombinant N-terminal GST-tagged human Rho kinase 2 (ROCK2, amino acids 1-552, Invitrogen Inc., cat #PV3759), 100 μg/ml S6 peptide substrate (related to amino acids 218-249 of the human 40S ribosomal protein S6, and suitable for ROCK1 or ROCK2, e.g. Upstate/Millipore Inc., cat #12-420), and 3 µM ATP are dispensed to wells of a 384 multi-well opaque plate. The plate is centrifuged for 30 seconds at approximately 200×g. 240 nl of test compound in DMSO is dispensed to each well by passive pin transfer. The lag phase of this in vitro kinase reaction permits addition of compounds soon after the reaction initiates. The reaction is allowed to incubate at 30° C. for 2 hours. The assay plates are sealed and maintained in a humidified environment. After 2 hours, 25 μl of easylite protein kinase assay reagent (Perkin-Elmer, Inc.) is dispensed. After an additional 10 minute incubation at room temperature (about 22° C.), luminescence activity is measured on a Molecular Devices Analyst multi-mode plate reader or other suitable plate reader. Kinase inhibition results in less ATP consumption, and therefore increased luminescence signal. Negative control activity is measured with DMSO lacking any test compound. The positive control is 2-methyl-1-(4-methylisoquinolin-5-ylsulfonyl)perhydro-1,4-diazepine hydrochloride (aka H-1152P, HCl salt). Efficacy is measured as a percentage of positive control activity. […] The designation NT means the cited example was not tested.

[2] = biological target: T2, recombinant N-terminal GST-tagged human Rho kinase 2 (ROCK2, amino acids 1-552) (Homo sapiens, UniProt O75116); assay: In vitro Rho kinase assay (luciferase-based ATP consumption), ROCK2; format: biochemical; conditions: recombinant GST-tagged human ROCK2, luciferase-based ATP consumption; read-out: ROCK2 IC50
T2 construct: ROCK2, amino acids 1-552; purchased Invitrogen Inc. PV3759
Summary of the method: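 Luciferase-based luminescence of leftover ATP after 2 h at 30 °C, where inhibition raises signal, reports activity of GST-tagged ROCK2 (aa 1-552) at 0.82 μg/ml. Conditions: S6 peptide 100 μg/ml, […], pH 7.5 Tris buffer. Results given as percent of H-1152P control activity.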

T1 sequence (Q13464 1-535): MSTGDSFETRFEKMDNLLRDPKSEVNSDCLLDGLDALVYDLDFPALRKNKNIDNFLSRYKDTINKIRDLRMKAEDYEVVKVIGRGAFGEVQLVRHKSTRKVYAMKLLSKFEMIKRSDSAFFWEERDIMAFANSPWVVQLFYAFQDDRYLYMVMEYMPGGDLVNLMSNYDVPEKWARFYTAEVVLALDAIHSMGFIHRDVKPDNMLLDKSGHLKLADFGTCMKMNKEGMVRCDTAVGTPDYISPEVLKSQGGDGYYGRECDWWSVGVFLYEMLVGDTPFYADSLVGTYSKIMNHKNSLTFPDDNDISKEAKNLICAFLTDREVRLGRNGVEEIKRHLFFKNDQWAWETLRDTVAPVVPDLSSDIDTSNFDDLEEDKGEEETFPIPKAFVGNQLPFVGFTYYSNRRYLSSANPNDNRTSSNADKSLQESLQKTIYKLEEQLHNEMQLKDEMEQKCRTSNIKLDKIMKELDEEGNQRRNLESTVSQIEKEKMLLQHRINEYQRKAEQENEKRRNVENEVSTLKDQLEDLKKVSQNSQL
T2 sequence (O75116 1-552): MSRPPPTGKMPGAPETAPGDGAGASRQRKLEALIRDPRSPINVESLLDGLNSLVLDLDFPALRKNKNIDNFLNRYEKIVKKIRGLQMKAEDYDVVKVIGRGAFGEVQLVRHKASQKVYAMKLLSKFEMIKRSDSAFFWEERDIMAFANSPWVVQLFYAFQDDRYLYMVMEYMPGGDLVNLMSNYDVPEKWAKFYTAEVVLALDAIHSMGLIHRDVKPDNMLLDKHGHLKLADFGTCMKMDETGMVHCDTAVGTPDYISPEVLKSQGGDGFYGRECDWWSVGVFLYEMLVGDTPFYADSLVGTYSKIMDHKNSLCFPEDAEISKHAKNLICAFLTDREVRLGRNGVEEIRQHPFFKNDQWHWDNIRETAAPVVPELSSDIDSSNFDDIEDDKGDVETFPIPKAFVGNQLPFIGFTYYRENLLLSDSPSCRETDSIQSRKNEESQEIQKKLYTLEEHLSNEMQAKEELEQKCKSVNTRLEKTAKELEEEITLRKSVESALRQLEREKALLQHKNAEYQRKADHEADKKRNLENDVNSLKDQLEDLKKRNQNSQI

Cc1c(-c2ccnc(N)n2)sc2ccc(CNC(=O)c3cccc(Br)c3)cc12 [Example 262, Cc1c(sc2ccc(CNC(═O)c3cccc(Br)c3)cc12)-c4ccnc(N)n4] showed an IC50 [1] of over 5 µM and an IC50 [2] of under 5 µM.
Molecule Cc1c(-c2ccnc(N)n2)sc2ccc(CNC(=O)c3ccc(F)cc3)cc12 [Example 123, Cc1c(sc2ccc(CNC(═O)c3ccc(F)cc3)cc12)-c4ccnc(N)n4] has an IC50 [1] of over 5 µM and an IC50 [2] of under 5 µM.
Cc1c(-c2ccnc(N)n2)sc2ccc(CNC(=O)c3cccc(Oc4ccccc4)c3)cc12 [Example 282, Cc1c(sc2ccc(CNC(═O)c3cccc(Oc4ccccc4)c3)cc12)-c5ccnc(N)n5] gave an IC50 [1] of over 5 µM and an IC50 [2] of over 5 µM.
Cc1c(-c2ccnc(N)n2)sc2ccc(CNC(=O)C3=CCCC3)cc12 [Example 104, Cc1c(sc2ccc(CNC(═O)C3═CCCC3)cc12)-c4ccnc(N)n4] showed an IC50 [1] of under 5 µM and an IC50 [2] of under 5 µM.
Work on Cc1c(-c2ccnc(N)n2)sc2ccc(Cc3cccc(C(=O)NCCN4CCOCC4)c3)cc12 [Example 48, 3-((2-(2-Aminopyrimidin-4-yl)-3-methylbenzo[b]thiophen-5-yl)methyl)-N-(3-morpholinoethyl)benzamide] yielded an IC50 [1] of under 5 µM and an IC50 [2] of under 5 µM.
Cc1c(-c2ccnc(N)n2)sc2ccc(CNC(=O)C(C)c3ccc(CC(C)C)cc3)cc12 (stereo not drawn) [Example 274, CC(C)Cc1ccc(cc1)C(C)C(═O)NCc2ccc3sc(c(C)c3c2)-c4ccnc(N)n4] showed an IC50 [1] of over 5 µM and an IC50 [2] of over 5 µM.
Cc1c(-c2ccnc(N)n2)sc2ccc(CNC(=O)c3ccnc(Cl)c3)cc12 [Example 150, Cc1c(sc2ccc(CNC(═O)c3ccnc(Cl)c3)cc12)-c4ccnc(N)n4] was tested, and the IC50 [1] was under 5 µM and the IC50 [2] was under 5 µM.
COc1ccccc1C=CC(=O)NCc1ccc2sc(-c3ccnc(N)n3)c(C)c2c1 [Example 200, COc1ccccc1C═CC(═O)NCc2ccc3sc(c(C)c3c2)-c4ccnc(N)n4] showed an IC50 [1] of under 5 µM and an IC50 [2] of under 5 µM.
In the case of Cc1c(-c2ccnc(N)n2)sc2ccc(CNC(=O)Cc3ccc4c(c3)OCO4)cc12 [Example 212, Cc1c(sc2ccc(CNC(═O)Cc3ccc4OCOc4c3)cc12)-c5ccnc(N)n5], the IC50 [1] is reported as under 5 µM and the IC50 [2] is reported as under 5 µM.
With Cc1c(-c2ccnc(N)n2)sc2ccc(CNC(=O)c3ccc(Cl)c([N+](=O)[O-])c3)cc12 [Example 268, Cc1c(sc2ccc(CNC(═O)c3ccc(Cl)c(c3)[N+]([O−])═O)cc12)-c4ccnc(N)n4] the IC50 [1] was over 5 µM and the IC50 [2] was under 5 µM.
Cc1c(-c2ccnc(N)n2)sc2ccc(CNC(=O)C(Cc3ccccn3)NC(=O)OC(C)(C)C)cc12 (stereo not drawn) [Example 326, Cc1c(sc2ccc(CNC(═O)[C](Cc3ccccn3)NC(═O)OC(C)(C)C)cc12)-c4ccnc(N)n4] showed an IC50 [1] of under 5 µM and an IC50 [2] of over 5 µM.
With Cc1c(-c2c[nH]c3ncccc23)sc2ccc(Cl)cc12 [Example 5, 3-(5-Chloro-3-methylbenzo[b]thiophen-2-yl)-1H-pyrrolo[2,3-b]pyridine] the IC50 [1] was over 5 µM and the IC50 [2] was over 5 µM.
CC(=O)Oc1ccc(C(=O)Nc2cccc(Nc3ccc4sc(-c5ccnc(N)n5)c(C)c4c3)c2)cc1 [Example 60, 4-(3-(2-(2-Aminopyrimidin-4-yl)-3-methylbenzo[b]thiophen-5-ylamino)phenylcarbamoyl)phenyl acetate] gave an IC50 [1] of under 5 µM and an IC50 [2] of under 5 µM.
Work on Cc1ccccc1CC(=O)NCc1ccc2sc(-c3ccnc(N)n3)c(C)c2c1 [Example 132, Cc1ccccc1CC(═O)NCc2ccc3sc(c(C)c3c2)-c4ccnc(N)n4] yielded an IC50 [1] of under 5 µM and an IC50 [2] of under 5 µM.
Work on Cc1ccc(C(=O)CCC(=O)NCc2ccc3sc(-c4ccnc(N)n4)c(C)c3c2)cc1 [Example 250, Cc1ccc(cc1)C(═O)CCC(═O)NCc2ccc3sc(c(C)c3c2)-c4ccnc(N)n4] yielded an IC50 [1] of over 5 µM and an IC50 [2] of under 5 µM.
In the case of Cc1ccc(C(=O)NCc2ccc3sc(-c4ccnc(N)n4)c(C)c3c2)cc1F [Example 145, Cc1ccc(cc1F)C(═O)NCc2ccc3sc(c(C)c3c2)-c4ccnc(N)n4], the IC50 [1] is reported as over 5 µM and the IC50 [2] is reported as under 5 µM.
CNc1nccc(Nc2ccc3sc(-c4ccnc(N)n4)c(C)c3c2)n1 [Example 76, N^4-(2-(2-Aminopyrimidin-4-yl)-3-methylbenzo[b]thiophen-5-yl)-N^2-methyl pyrimidine-2,4-diamine] was tested, and the IC50 [1] was under 5 µM and the IC50 [2] was under 5 µM.
Molecule CCC(C)C(NC(=O)OC(C)(C)C)C(=O)NCc1ccc2sc(-c3ccnc(N)n3)c(C)c2c1 (stereo not drawn) [Example 322, CCC(C)[C](NC(═O)OC(C)(C)C)C(═O)NCc1ccc2sc(c(C)c2c1)-c3ccnc(N)n3] has an IC50 [1] of under 5 µM and an IC50 [2] of over 5 µM.
For Cc1ccccc1CCC(=O)NCc1ccc2sc(-c3ccnc(N)n3)c(C)c2c1 [Example 167, Cc1ccccc1CCC(═O)NCc2ccc3sc(c(C)c3c2)-c4ccnc(N)n4], the IC50 [1] was over 5 µM and the IC50 [2] was under 5 µM.
Cc1c(-c2ccnc(N)n2)sc2ccc(CNC(=O)c3cc4cc(Cl)ccc4o3)cc12 [Example 258, Cc1c(sc2ccc(CNC(═O)c3cc4cc(Cl)ccc4o3)cc12)-c5ccnc(N)n5] showed an IC50 [1] of under 5 µM and an IC50 [2] of under 5 µM.
Cc1c(-c2ccnc(N)n2)sc2ccc(CNC(=O)c3cncc(Br)c3)cc12 [Example 271, Cc1c(sc2ccc(CNC(═O)c3cncc(Br)c3)cc12)-c4ccnc(N)n4] showed an IC50 [1] of over 5 µM and an IC50 [2] of under 5 µM.
Molecule Cc1c(-c2ccnc(N)n2)sc2ccc(Nc3ccnc(O)n3)cc12 [Example 75, 4-(2-(2-Aminopyrimidin-4-yl)-3-methylbenzo[b]thiophen-5-ylamino)pyrimidin-2-ol] has an IC50 [1] of under 5 µM and an IC50 [2] of under 5 µM.
In the case of Cc1c(-c2ccnc(N)n2)sc2ccc(Cc3cccc(OCCCN)c3)cc12 [Example 31, 4-(5-(3-(3-Aminopropoxy)benzyl)-3-methylbenzo[b]thiophen-2-yl)pyrimidin-2-amine], the IC50 [1] is reported as under 5 µM and the IC50 [2] is reported as under 5 µM.
Cc1c(-c2ccnc(N)n2)sc2ccc(Sc3cccc(O)c3)cc12 [Example 84, 3-(2-(2-Aminopyrimidin-4-yl)-3-methylbenzo[b]thiophen-5-ylthio)phenol] gave an IC50 [1] of under 5 µM and an IC50 [2] of under 5 µM.
For COc1cc(C(=O)NCc2ccc3sc(-c4ccnc(N)n4)c(C)c3c2)c([N+](=O)[O-])cc1OC [Example 301, COc1cc(C(═O)NCc2ccc3sc(c(C)c3c2)-c4ccnc(N)n4)c(cc1OC)[N+]([O−])═O], the IC50 [1] was over 5 µM and the IC50 [2] was under 5 µM.
Work on Cc1nc(Br)sc1C(=O)NCc1ccc2sc(-c3ccnc(N)n3)c(C)c2c1 [Example 296, Cc1nc(Br)sc1C(═O)NCc2ccc3sc(c(C)c3c2)-c4ccnc(N)n4] yielded an IC50 [1] of over 5 µM and an IC50 [2] of under 5 µM.
Work on COc1cccc(Oc2ccc3sc(-c4ccnc(N)n4)c(C)c3c2)c1 [Example 81, 4-(5-(3-Methoxyphenoxy)-3-methylbenzo[b]thiophen-2-yl)pyrimidin-2-amine] yielded an IC50 [1] of under 5 µM and an IC50 [2] of under 5 µM.
Molecule Cc1c(-c2ccnc(N)n2)sc2ccc(CNC(=O)c3cccc([N+](=O)[O-])c3)cc12 [Example 180, Cc1c(sc2ccc(CNC(═O)c3cccc(c3)[N+]([O−])═O)cc12)-c4ccnc(N)n4] has an IC50 [1] of under 5 µM and an IC50 [2] of under 5 µM.
Molecule Cc1c(-c2ccnc(N)n2)sc2ccc(CNC(=O)C(C)c3ccc(O)cc3)cc12 (stereo not drawn) [Example 178, CC(C(═O)NCc1ccc2sc(c(C)c2c1)-c3ccnc(N)n3)c4ccc(O)cc4] has an IC50 [1] of under 5 µM and an IC50 [2] of under 5 µM.
Cc1c(-c2ccnc(N)n2)sc2ccc(Cc3cccc(C(F)(F)F)c3)cc12 [Example 39, 4-(3-Methyl-5-(3-(trifluoromethyl)benzyl)benzo[b]thiophen-2-yl)pyrimidin-2-amine] showed an IC50 [1] of over 5 µM and an IC50 [2] of over 5 µM.
Work on Cc1c(-c2ccnc(N)n2)sc2ccc(CNC(=O)c3ccccc3Oc3ccccc3)cc12 [Example 283, Cc1c(sc2ccc(CNC(═O)c3ccccc3Oc4ccccc4)cc12)-c5ccnc(N)n5] yielded an IC50 [1] of under 5 µM and an IC50 [2] of over 5 µM.
Cc1ccc([N+](=O)[O-])c(C(=O)NCc2ccc3sc(-c4ccnc(N)n4)c(C)c3c2)c1 [Example 217, Cc1ccc(c(c1)C(═O)NCc2ccc3sc(c(C)c3c2)-c4ccnc(N)n4)[N+]([O−])═O] was tested, and the IC50 [1] was over 5 µM and the IC50 [2] was under 5 µM.
For COc1cc(OC)c(C(=O)NCc2ccc3sc(-c4ccnc(N)n4)c(C)c3c2)cc1OC [Example 278, COc1cc(OC)c(cc1OC)C(═O)NCc2ccc3sc(c(C)c3c2)-c4ccnc(N)n4], the IC50 [1] was under 5 µM and the IC50 [2] was under 5 µM.
